Source: the NIST ThermoML archive (doi:10.1021/je7001623)
Numbers after ± are expanded uncertainties.

Details: 101.33 kPa, Liquid; for mass density: Vibrating tube method; for viscosity: surface light scattering

CC(C)CCCCCCCOC(=O)c1ccccc1C(=O)OCCCCCCCC(C)C
Details | mass density [kg/m3] | viscosity [mPa·s]
273.14 K | 980.74 ± 0.4 | –
278.15 K | 977.13 ± 0.39 | –
283.15 K | 973.51 ± 0.39 | 265.6 ± 8.2
288.15 K | 969.94 ± 0.39 | 177.4 ± 5.7
293.15 K | 966.43 ± 0.39 | 123.8 ± 3.9
298.15 K | – | 88.44 ± 2.7
298.16 K | 962.9 ± 0.39 | –
303.15 K | – | 64.84 ± 2
303.16 K | 959.36 ± 0.39 | –
308.15 K | – | 48.98 ± 1.5
308.16 K | 955.81 ± 0.39 | –
313.15 K | – | 38.01 ± 1.1
313.16 K | 952.27 ± 0.39 | –
318.16 K | 948.73 ± 0.38 | –
323.16 K | 945.19 ± 0.38 | –
328.16 K | 941.65 ± 0.38 | –
333.16 K | 938.12 ± 0.38 | –
338.16 K | 934.6 ± 0.38 | –
348.15 K | 927.54 ± 0.38 | –
353.15 K | 924.02 ± 0.38 | –
358.15 K | 920.5 ± 0.38 | –
363.15 K | 916.95 ± 0.37 | –
